Experimental data: patent publication US20250099357A1, “ANT[…] WITH BETA CARBOLINE ALKALOID AND PHENOLIC ACID AND CO[…]” (Conopco, Inc., d/b/a UNILEVER, priority 2021, published 2025)

Experiments:
[1] = system: Enterobacter gergoviae ATCC 33028; assay: Liquid broth assay (MIC and checkerboard) against Enterobacter gergoviae; assay type: cell-based; settings: Pluralibacter gergoviae, ATCC33028, component by itself, 30° C., 24 hours, OD600, <25% growth vs control, read-out: minimal inhibitory concentration (MIC)
Excerpt: (§1) Naturally derived antimicrobial systems were made, as shown below by combining the beta carboline alkaloid and phenolic acid. Two pools were set up and each pool contained 1 organism. The strains involved were Enterobacter gergoviae ATCC 33028 of the family Pluralibacter gergoviae, a Gram-negative and Aspergillus brasiliensis ATCC 16404. The FIC test range was 16 times greater than the projected MIC for each sample.
(§2) The differing behaviors of inhibitory antimicrobials in isolation and mixtures have been widely explored using the concept of the Fractional Concentration and Fractional Inhibitory Concentration (FIC). See for instance JRW Lambert and R Lambert, J. Appl. Microbiol 95, 734 (2003); T. Jadavji, CG Prober and R Cheung, Antibacterial Agents and Chemotherapy 26, 91 (1984), and WO 2004/006876. MIC is the minimum inhibitory concentration a component prevents visible growth of a microbe. The FC and FIC parameters can be defined as follows: […]
(§3) Liquid broth assays (MIC and checkerboard) were conducted to identify the minimum concentration(s) of individual and binary combinations of natural preservation materials. […] Each of the two-preservation chemical/broth mixes was then combined in a third 96 well plate at varying concentrations and then inoculated with 1-5x106 microorganisms and incubated at 30° C. for 24 hours, after which optical densities at OD600 nm were measured.

[2] = system: Aspergillus brasiliensis ATCC 16404; assay: Liquid broth assay (MIC and checkerboard) against Aspergillus brasiliensis; assay type: cell-based; settings: ATCC16404, component by itself, 30° C., 24 hours, OD600, <25% growth vs control
Excerpt: as §1, §2, §3

## COc1cc(C(=O)O)cc(OC)c1O [Syringic Acid, 4-Hydroxy-3,5-dimethoxybenzoic acid]
[1]
  MIC: > 50 mg/mL
[2]
  MIC: > 50 mg/mL
